Key:
Assay in all cases: relative viability (nuclei count vs DMSO), 5 days (fraction); higher = more cells survive
Vismodegib + Lapatinib = compound: CS(=O)(=O)c1ccc(C(=O)Nc2ccc(Cl)c(-c3ccccn3)c2)c(Cl)c1 [Vismodegib] + CS(=O)(=O)CCNCc1ccc(-c2ccc3ncnc(Nc4ccc(OCc5cccc(F)c5)c(Cl)c4)c3c2)o1 [Lapatinib] (partner 2 µM)
Procedure, shortened: (§1)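 Lung cancer cell lines in 1536-well plates were dosed by pin tool the day after seeding, either with one drug alone or with a fixed anchor-drug dose plus five library-drug doses (not always all listed) in √10 steps. After 5 days, cells were fixed and their nuclei stained in one step (final 0.05% Triton X-100, 1% formaldehyde, 1 ug/ml Hoechst), then counted on 4× images. Relative viability is the nuclei count in treated wells divided by that in vehicle wells. Values are medians of duplicate plates.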

VE-821 + Phenformin = compound: CS(=O)(=O)c1ccc(-c2cnc(N)c(C(=O)Nc3ccccc3)n2)cc1 [VE-821] + N=C(N)NC(=N)NCCc1ccccc1 [Phenformin] (partner 250 µM)
Procedure, shortened: as §1

Ruxolitinib + Phenformin = compound: N#CC[C@H](C1CCCC1)n1cc(-c2ncnc3[nH]ccc23)cn1 [Ruxolitinib] + N=C(N)NC(=N)NCCc1ccccc1 [Phenformin] (partner 250 µM)
Procedure, shortened: as §1

Ruxolitinib + Olaparib = compound: N#CC[C@H](C1CCCC1)n1cc(-c2ncnc3[nH]ccc23)cn1 [Ruxolitinib] + O=C(c1cc(Cc2n[nH]c(=O)c3ccccc23)ccc1F)N1CCN(C(=O)C2CC2)CC1 [Olaparib] (partner 8 µM)
Procedure, shortened: as §1

| Cell Line | relative viability (Vismodegib + Lapatinib; first compound 0.08 µM) | relative viability (Vismodegib + Lapatinib; first compound 0.253 µM) | relative viability (Vismodegib + Lapatinib; first compound 0.8 µM) | relative viability (Vismodegib + Lapatinib; first compound 2.53 µM) | relative viability (Vismodegib + Lapatinib; first compound 8 µM) | relative viability (VE-821 + Phenformin; first compound 0.08 µM) | relative viability (VE-821 + Phenformin; first compound 0.253 µM) | relative viability (VE-821 + Phenformin; first compound 0.8 µM) | relative viability (VE-821 + Phenformin; first compound 2.53 µM) | relative viability (VE-821 + Phenformin; first compound 8 µM) | relative viability (Ruxolitinib + Phenformin; first compound 0.08 µM) | relative viability (Ruxolitinib + Phenformin; first compound 0.253 µM) | relative viability (Ruxolitinib + Phenformin; first compound 0.8 µM) | relative viability (Ruxolitinib + Phenformin; first compound 2.53 µM) | relative viability (Ruxolitinib + Phenformin; first compound 8 µM) | relative viability (Ruxolitinib + Olaparib; first compound 0.08 µM) | relative viability (Ruxolitinib + Olaparib; first compound 0.253 µM) | relative viability (Ruxolitinib + Olaparib; first compound 0.8 µM) | relative viability (Ruxolitinib + Olaparib; first compound 2.53 µM) | relative viability (Ruxolitinib + Olaparib; first compound 8 µM) |
| --- | --- | --- | --- | --- | --- | --- | --- | --- | --- | --- | --- | --- | --- | --- | --- | --- | --- | --- | --- | --- |
| 201T | 1.05 | 0.998 | 0.946 | 1.04 | 1.02 | 0.476 | 0.415 | 0.468 | 0.431 | 0.364 | 0.44 | 0.455 | 0.473 | 0.429 | 0.503 | 0.941 | 0.964 | 0.972 | 1.01 | 0.894 |
| A549 | 1.02 | 0.972 | 0.971 | 0.979 | 0.908 | 0.182 | 0.214 | 0.157 | 0.13 | 0.103 | 0.0714 | 0.144 | 0.198 | 0.127 | 0.15 | 0.226 | 0.36 | 0.35 | 0.331 | 0.0796 |
| A-427 | 1.09 | 1.04 | 1.01 | 0.977 | 1.13 | 0.341 | 0.319 | 0.293 | 0.365 | 0.225 | 0.291 | 0.3 | 0.338 | 0.281 | 0.276 | 0.749 | 0.732 | 0.739 | 0.67 | 0.632 |
| ABC-1 | – | 1.17 | 1.14 | 1.02 | 1.15 | 0.308 | 0.26 | 0.203 | 0.244 | 0.211 | – | 0.282 | 0.316 | 0.287 | 0.294 | – | 0.886 | 0.892 | 0.505 | 1.02 |
| BEN | 0.77 | 0.718 | 0.778 | 0.844 | 0.733 | 0.284 | 0.281 | 0.283 | 0.257 | 0.249 | 0.232 | 0.281 | 0.244 | 0.239 | 0.255 | 1.16 | 1.27 | 1.24 | 0.96 | 0.994 |
| CAL-12T | – | 0.723 | 0.578 | 0.562 | 0.75 | 0.585 | 0.526 | 0.611 | 0.523 | 0.396 | 0.437 | 0.674 | 0.596 | 0.444 | 0.408 | 0.627 | 0.779 | 0.756 | 0.673 | 0.67 |
| Calu-6 | 1.13 | 1.08 | 1.06 | 1.09 | 1.03 | – | – | – | – | – | – | – | – | – | – | 0.575 | 0.62 | 0.577 | – | 0.39 |
| ChaGo-K-1 | – | – | – | – | – | 0.454 | 0.459 | 0.536 | 0.496 | 0.427 | 0.45 | 0.401 | 0.414 | 0.449 | 0.446 | 0.42 | 0.445 | 0.379 | 0.347 | 0.319 |

Source: the supplement of paper PMC10307832
